# Experimental data published in US20230095618A1, “OIL-IN-WATER EMULSION COMPRISING A SOLID LIPID MATERIAL” (priority 2020, published 2023).
# Tested on: yellow fever mosquito, Aedes aegypti Rockefeller strain
# Test: Repulsive effect on mosquitoes: number of landings on a treated warm glass plate in a cage
# Format: in vivo
# Conditions: reference actives diluted at 12.5% in ethanol; for number of mosquito landings: glass plate at 34° C., cage with 30 unfed A. aegypti females
# Description: Controlling efficacy was tested against the yellow fever mosquito, Aedes aegypti Rockefeller strain. […] Observations of controlling efficacy were made on host-seeking females of uniform age, 5 to 12 days post-eclosion from pupae. Tested hungry females had access to 10% sugar solution but were not blood-fed. The testing protocol was adapted from the method described in Krober et al. (2010; doi: 10.2987/10-6044.1). A controlled amount […] of stimulus was deposited in the center of a sandblasted glass plate (60 mm diam) and maintained at 34° C. The glass plate was then placed in a polycarbonate cage (200×260×180 mm) containing 30 A. aegypti unfed female mosquitoes. The number of landings of the mosquitoes as a function of time was monitored using a camera and allowed to evaluate the repulsive effect of the stimulus. Stimuli tested were water, ethanol or diluted insect repellent active as controls and samples according to example 1. When only water is applied onto the glass surface, the average number of mosquitoes landing is about 63. The reference sample consisting of pure IR3535® diluted at 12.5% in ethanol reduces the number of landing from about 63 landings in the control test to about 12 landings 2 hrs after application (81% reduction), 15 after 4 hrs (−76%) and 30 after 6 hrs (−52%). Emulsion 1 according to example 1 reduces the number of landings from about 63 landings in the control test to about 12 landings 2 hrs after application (81% reduction), 4 after 4 hrs (−93%) and 3 after 6 hrs (−95%). […] Emulsion 2 according to example 1 reduces the number of landings from about 63 landings in the control test to about 8 landings 2 hrs after application (87% reduction), 2 after 4 hrs (−97%) and 4 after 6 hrs (−93%).
Structure (SMILES),number of mosquito landings (2 hrs after application),reduction of the number of landings versus water control (2 hrs after application) [%],number of mosquito landings (after 4 hrs) [landings],change of the number of landings versus water control (given as negative %) (after 4 hrs) [%],number of mosquito landings (after 6 hrs) [landings],change of the number of landings versus water control (given as negative %) (after 6 hrs) [%]
"CCN(CC)C(=O)c1cccc(C)c1 [DEET, N,N-diethyl-3-methylbenzamide]",about 15 landings,72,~10,−81,~19,−65
"CCCCN(CCC(=O)OCC)C(C)=O [IR3535®, ethyl 3-(acetyl(butyl)amino)propanoate]",about 12 landings,81,~15,−76,~30,−52
